Assay: recombinant barcode read abundance after kanamycin selection (control-corrected) (log10(CPM+1)); higher = more efficient recombination; sequences stand for … in AGTGCAGAGAAAATCGGCCAGTTTTCTCTGCCTGCAGTCCGCATGCCGT…AGATTTATGCAGCGGACTGCCTTTCTCCCAAAGTGATAAACCGGACAGTATCATGGACCGGTTTTCCCGGTAATCCGTATTTGCAAGGTTGGTTTCACT; site = the 11-nt target
Experimental: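 Pooled E. coli target-specificity screen for the IS621 bridge recombinase. Each library plasmid pairs an 11-nt target (CT core) with a bridge RNA whose target-binding loop (9-nt LTG + 4-nt RTG) is reprogrammed; the rest of the 177-nt WT IS621 bridge RNA scaffold is fixed. The plasmid is co-electroporated with a WT donor plasmid; recombinase is induced with 0.1 mM IPTG and recombinants are selected on kanamycin. Recombinant barcodes are sequenced, converted to CPM, averaged over two biological replicates and corrected by the unselected control CPM. Molecule = full bridge RNA written as DNA: LTG = specificity nt 1-9, RTG = reverse complement of specificity nt 8-11, in the WT scaffold.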
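Note: IS621 recombinase and bridge RNA in Escherichia coli cells.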

Row | Sequence | recombinant barcode read abundance (log10)
1 | ATCCTACCTTGGGTTCTAACCTGTTGCTT (site ATCCTACCTAA) | 1.72
2 | TCTGGGGCTTGGGTTCTAACCTGTTGCAG (site TCTGGGGCTCC) | 0.189
3 | ACTTGGACTTGGGTTCTAACCTGTTGCAT (site ACTTGGACTAT) | 1.79
4 | GGGGCTTCTTGGGTTCTAACCTGTTGCAT (site GGGTCTTCTAT) | 0.27
5 | TCGGAGTCTTGGGTTCTAACCTGTTGCTT (site TCGGAGTCTAT) | 1.39
6 | GAGCGCTCTTGGGTTCTAACCTGTTGCTG (site GAGCGCTCTCA) | 1.05
7 | TCCCGACCTTGGGTTCTAACCTGTTGCCT (site TCCCGACCTAG) | 1.72
8 | TTGGGCGCTTGGGTTCTAACCTGTTGCCT (site TTGGACGCTAG) | 0.0866
9 | GTTTGAGCTTGGGTTCTAACCTGTTGCCT (site GTTTGAGCTAG) | 0.625
10 | TAGCCTTCTTGGGTTCTAACCTGTTGCAG (site TAGCCTTCTCT) | 1.14
11 | TAAAAGCCTTGGGTTCTAACCTGTTGCCT (site TAAAAGCCTAG) | 0.42
12 | CGAGGCCCTTGGGTTCTAACCTGTTGCTT (site GTCCTATCTGT) | 0.0488
13 | GCACCGCCTTGGGTTCTAACCTGTTGCCT (site ACACCGCCTAG) | 0.667
14 | AGCAGAGCTTGGGTTCTAACCTGTTGCCG (site AGCAGAGCTCG) | 1.15
15 | GGACCTCCTTGGGTTCTAACCTGTTGCCT (site GGACCTCCTAA) | 0.336
16 | GTCATACCTTGGGTTCTAACCTGTTGCCT (site GTCGTACCTAG) | 0.111
17 | CCTAGACCTTGGGTTCTAACCTGTTGCCT (site CCTAGATCTAG) | 0.312
18 | CGACCTACTTGGGTTCTAACCTGTTGCTA (site GTACCTACTTA) | 0.17
19 | TAGAACACTTGGGTTCTAACCTGTTGCCT (site AAGAACACTAG) | 0.0955
20 | ACGGTCACTTGGGTTCTAACCTGTTGCCT (site ACGGTCACTAG) | 2.95
21 | ACTGGGGCTTGGGTTCTAACCTGTTGCCA (site TCTGGGGCTAG) | 0.0799

Row | Sequence | recombinant barcode read abundance (log10)
22 | AAGGTCACTTGGGTTCTAACCTGTTGCCT (site AAGGTCACTAG) | 2.24
23 | CCTAACACTTGGGTTCTAACCTGTTGCCT (site TCTAACACTAG) | 0.114
24 | GGGTCCACTTGGGTTCTAACCTGTTGCTT (site GGGTCCACTAT) | 0.714
25 | AGGGTACCTTGGGTTCTAACCTGTTGCAG (site AGGGTACCTCT) | 2.52
26 | CTCGGATCTTGGGTTCTAACCTGTTGCTT (site CTCGGATCTGA) | 0.0569
27 | TACTCCTCTTGGGTTCTAACCTGTTGCGG (site CTAAAAGCTTG) | 0.0539
28 | AACTGATCTTGGGTTCTAACCTGTTGCCT (site AACTAATCTAG) | 0.0976
29 | AGCCACTCTTGGGTTCTAACCTGTTGCCT (site AGCCACACTAG) | 0.0426
30 | CCGTCTACTTGGGTTCTAACCTGTTGCTT (site CCGTCTACTAA) | 0.107
31 | CAGTTTGCTTGGGTTCTAACCTGTTGCCT (site CAGTTAGCTAG) | 0.102
32 | TGGCAGACTTGGGTTCTAACCTGTTGCCT (site TGGCAGGCTAG) | 0.0442
33 | TCGCACACTTGGGTTCTAACCTGTTGCCT (site ACGCACACTAG) | 0.276
34 | TACTAAGCTTGGGTTCTAACCTGTTGCTT (site TACTAAGCTAA) | 0.184
35 | GACTTGGCTTGGGTTCTAACCTGTTGCCT (site GACTTGACTAG) | 0.0256
36 | AATGTATCTTGGGTTCTAACCTGTTGCCT (site AATGGATCTAG) | 0.0435
37 | TTCTTGCCTTGGGTTCTAACCTGTTGCCT (site TTATTGTCTAG) | 0.111
38 | CTCTCGCCTTGGGTTCTAACCTGTTGCCT (site CTTTCGCCTAG) | 0.0266
39 | AGAATGTCTTGGGTTCTAACCTGTTGCCT (site AGAATGTCTAG) | 1.98
40 | TAGCGGACTTGGGTTCTAACCTGTTGCCT (site TAGCGGACTAG) | 1.28
41 | AGAGCCTCTTGGGTTCTAACCTGTTGCTA (site TTCAGGGCTCT) | 0.0371
42 | TGTAATGCTTGGGTTCTAACCTGTTGCCT (site TGTAATACTAG) | 0.0123

Row | Sequence | recombinant barcode read abundance (log10)
43 | TATCCGACTTGGGTTCTAACCTGTTGCCG (site TATCCGACTTG) | 0.11
44 | CCTTGGGCTTGGGTTCTAACCTGTTGCTT (site CCTTGGGCTAA) | 0.011
45 | CCTTGTACTTGGGTTCTAACCTGTTGCCT (site CCTTGTACTAG) | 0.035
46 | GCTTGGACTTGGGTTCTAACCTGTTGCAT (site GTTTGGACTCT) | 0.0332
47 | CTCGGATCTTGGGTTCTAACCTGTTGCTT (site CTCGGATCTTA) | 0.371
48 | GGCAGATCTTGGGTTCTAACCTGTTGCTT (site GGCAGTTCTAA) | 0.9
49 | CGCCGTCCTTGGGTTCTAACCTGTTGCAT (site CGCCGTCCTAT) | 0.279
50 | CAGCATACTTGGGTTCTAACCTGTTGCCT (site CCGCATACTAG) | 0.159
51 | ACCAAATCTTGGGTTCTAACCTGTTGCCG (site ACCAAATCTCG) | 0.0782
52 | CGTGCGGCTTGGGTTCTAACCTGTTGCCT (site TGTGCGGCTAG) | 0.0337
53 | ACTTGGCCTTGGGTTCTAACCTGTTGCTG (site ACTTGGCCTCA) | 0.0699
54 | CTCCTACCTTGGGTTCTAACCTGTTGCCT (site CTCCTACCTAG) | 0.957
55 | ACGTAGACTTGGGTTCTAACCTGTTGCAG (site ACGTAGACTCT) | 0.802
56 | TACAGAGCTTGGGTTCTAACCTGTTGCGG (site TATAGAGCTCC) | 0.488
57 | TGCTCTACTTGGGTTCTAACCTGTTGCTT (site TGGTCTACTAA) | 0.0891
58 | TTGTAGACTTGGGTTCTAACCTGTTGCCT (site TTGTAGACTAG) | 1.22
59 | CCAAGATCTTGGGTTCTAACCTGTTGCCT (site CTAAGATCTAG) | 0.46
60 | AGCGCTACTTGGGTTCTAACCTGTTGCCT (site ACCGCTACTAG) | 0.121
61 | CAGCATACTTGGGTTCTAACCTGTTGCCT (site CTGCATACTAG) | 0.0255
62 | TCGGGGTCTTGGGTTCTAACCTGTTGCCT (site GCGGGGTCTAG) | 0.0776
63 | AGGCCCGCTTGGGTTCTAACCTGTTGCGG (site GTAAGATCTGT) | 0.186

Row | Sequence | recombinant barcode read abundance (log10)
64 | TAGTCGACTTGGGTTCTAACCTGTTGCTT (site TAGGCGACTAA) | 0.0688
65 | GTACCTTCTTGGGTTCTAACCTGTTGCCT (site GTACCTTCTAG) | 1.08
66 | AACGCTTCTTGGGTTCTAACCTGTTGCCT (site AGCGCTTCTAG) | 0.0496
67 | AATGGGACTTGGGTTCTAACCTGTTGCCT (site AATGGGGCTAG) | 0.222
68 | CACAGGCCTTGGGTTCTAACCTGTTGCAG (site TGTTCAGCTAG) | 0.0715
69 | CGGGACACTTGGGTTCTAACCTGTTGCGG (site CGGTACACTCC) | 0.867
70 | CAGGAACCTTGGGTTCTAACCTGTTGCCT (site AAGGAACCTAG) | 0.15
71 | ACGGGTCCTTGGGTTCTAACCTGTTGCAG (site ACGGGTCCTCT) | 3.09
72 | CGCGGGTCTTGGGTTCTAACCTGTTGCTT (site CGCGGGTCTAA) | 0.88
73 | GCGAGCTCTTGGGTTCTAACCTGTTGCCT (site GCGAGCTCTAG) | 1.6
74 | GACATTCCTTGGGTTCTAACCTGTTGCCT (site GACATTCCTAG) | 0.131
75 | GAGGCTCCTTGGGTTCTAACCTGTTGCCG (site GAGGCTCCTTG) | 0.238
76 | GAGACTCCTTGGGTTCTAACCTGTTGCAG (site GAGACTCCTGT) | 0.509
77 | ACCAGGTCTTGGGTTCTAACCTGTTGCCT (site ACCAGGTCTAG) | 1.59
78 | GTAAGCTCTTGGGTTCTAACCTGTTGCCT (site CTAAGCTCTAG) | 0.349
79 | CTTCGCACTTGGGTTCTAACCTGTTGCCT (site CGTCGCACTAG) | 0.0111
80 | GACCGTCCTTGGGTTCTAACCTGTTGCAT (site GACCGTCCTAA) | 0.167
81 | TTGTGTTCTTGGGTTCTAACCTGTTGCTA (site TTGTGTTCTTA) | 0.465
82 | CGTATGGCTTGGGTTCTAACCTGTTGCCT (site CGTATGGCTAG) | 0.349

From the supplement of paper PMC11208160
